Reference: patent publication US9890133B2 (priority 2011, dated 2018)
≈ marks a conversion by molar mass, not a printed value. Read-outs that look alike come from different tables or passages of the source.

How the values were obtained:
[1] = Cytotoxicity (CC50), MTS-based assay (Experimental Example 2); type: cell-based
Description: (§1) The test compounds were evaluated for anti-picornavirus activity by a multicycle cytopathic effect (CPE) reduction assay. The antiviral activity was initially determined using an MTS [3-(4,5-dimethylthiazol-2-yl)-5-(3-carboxymethoxyphenyl)-2-(4-sulfophenyl-2H-tetrazolium]-based CPE reduction assay.
(§2) In this regard, cells grown to confluence in 96-well plates were infected with 100 50% cell culture infective doses (CCID50) of virus. After an adsorption period of 2 hrs at 37° C., virus was removed and serial dilutions of the compounds were added. […] After removal of the medium, 90 μl of a culture medium and 10 μl of MTS-phenazine methosulfate (Promega, Leiden, The Netherlands) were added to each well. After an incubation period of 2 hrs at 37° C., the optical density (OD) of each well was read at 498 nm in a microplate reader.
CPE values for evaluating cytotoxicity were calculated using the following Mathematic Formula 4: […]
(§3) The 50% effective concentration (EC50) and the 50% cytotoxic concentration (CC50) were defined as the concentrations of compound that offered 50% protection against virus-induced CPE and that killed cells by 50%, respectively, and were calculated using logarithmic interpolation.

Coxsackie A16 = experiment: Multicycle CPE reduction assay, Coxsackie A16; type: cell-based; details: MRC5; incubation at 37° C. in MRC-5 cells
Description: as §1, §2
(§4) CPE values for evaluating antiviral activity were calculated using the following Mathematic Formula 3: […]
as §3

Coxsackie A21 = experiment: Multicycle CPE reduction assay, Coxsackie A21; type: cell-based; details: MRC5; incubation at 37° C. in MRC-5 cells
Description: as §1, §2, §4, §3

Entero 71 = experiment: Multicycle CPE reduction assay, Entero 71; type: cell-based; details: incubation at 37° C. in RD cells
Description: as §1, §2, §4, §3

Echo 9 = experiment: Multicycle CPE reduction assay, Echo 9; type: cell-based
Description: as §1, §2, §4, §3

Echo 11 = experiment: Multicycle CPE reduction assay, Echo 11; type: cell-based; details: BGM, read-out: Echo 11 EC50
Description: as §1, §2, §4, §3

Polio 1 = experiment: organism not typed; type: cell-based; details: BGM, read-out: Polio 1 EC50
Polio 2 = experiment: organism not typed; type: cell-based; details: BGM, read-out: Polio 2 EC50
Polio 3 = experiment: organism not typed; type: cell-based; details: BGM, read-out: Polio 3 EC50
Rhino 2 = experiment: Multicycle CPE reduction assay, Rhino 2; type: cell-based; details: incubation at 37° C. in HeLa cells
Description: as §1, §2, §4, §3

Rhino 9 = experiment: Multicycle CPE reduction assay, Rhino 9; type: cell-based; details: incubation at 37° C. in HeLa cells
Description: as §1, §2, §4, §3

Rhino 15 = experiment: Multicycle CPE reduction assay, Rhino 15; type: cell-based; details: incubation at 37° C. in HeLa cells
Description: as §1, §2, §4, §3

Rhino 29 = experiment: Multicycle CPE reduction assay, Rhino 29; type: cell-based; details: incubation at 37° C. in HeLa cells
Description: as §1, §2, §4, §3

Rhino 39 = experiment: Multicycle CPE reduction assay, Rhino 39; type: cell-based; details: incubation at 37° C. in HeLa cells
Description: as §1, §2, §4, §3

Rhino 41 = experiment: Multicycle CPE reduction assay, Rhino 41; type: cell-based; details: incubation at 37° C. in HeLa cells
Description: as §1, §2, §4, §3

Rhino 45 = experiment: Multicycle CPE reduction assay, Rhino 45; type: cell-based; details: incubation at 37° C. in HeLa cells
Description: as §1, §2, §4, §3

Rhino 63 = experiment: Multicycle CPE reduction assay, Rhino 63; type: cell-based; details: incubation at 37° C. in HeLa cells
Description: as §1, §2, §4, §3

Rhino 85 = experiment: Multicycle CPE reduction assay, Rhino 85; type: cell-based; details: incubation at 37° C. in HeLa cells
Description: as §1, §2, §4, §3

Rhino 89 = experiment: Multicycle CPE reduction assay, Rhino 89; type: cell-based; details: HeLa, read-out: Rhino 89 EC50
Description: as §1, §2, §4, §3

Rhino 42 = experiment: Multicycle CPE reduction assay, Rhino 42; type: cell-based; details: incubation at 37° C. in HeLa cells
Description: as §1, §2, §4, §3

Rhino 70 = experiment: Multicycle CPE reduction assay, Rhino 70; type: cell-based
Description: as §1, §2, §4, §3

Rhino 72 = experiment: Multicycle CPE reduction assay, Rhino 72; type: cell-based; details: incubation at 37° C. in HeLa cells
Description: as §1, §2, §4, §3

Rhino 86 = experiment: Multicycle CPE reduction assay, Rhino 86; type: cell-based; details: incubation at 37° C. in HeLa cells
Description: as §1, §2, §4, §3

in vitro = details: human
Poliovirus 3 = experiment: microbe, parasite or virus in culture; type: cell-based; details: Enterovirus C
Coxsackie A9 = experiment: Multicycle CPE reduction assay, Coxsackie A9; type: cell-based; details: incubation at 37° C. in BGM cells
Description: as §1, §2, §4, §3

Rhino 14 = experiment: Multicycle CPE reduction assay, Rhino 14; type: cell-based; details: incubation at 37° C. in HeLa cells
Description: as §1, §2, §4, §3

Coxsackie A24(DN) = experiment: CPE inhibition assay, Coxsackie A24(DN); type: cell-based; details: MRC5, 48 h; MRC-5, 37° C., 2 days, FDA
Coxsackie A24(HG) = experiment: CPE inhibition assay, Coxsackie A24(HG); type: cell-based; details: MRC5, 48 h; MRC-5, 37° C., 2 days, FDA
Rhino 59 = experiment: Multicycle CPE reduction assay, Rhino 59; type: cell-based; details: incubation at 37° C. in HeLa cells
Description: as §1, §2, §4, §3

[2] = test system: mock-infected cells (HeLa, MRC-5, RD); details: human
[3] = HeLa, read-out: Rhino 70 EC50, incubation at 37° C. in HeLa cells

SMILES	CC50 at 3 days [1] [µM]	EC50 (Entero 71) [µM]	EC50 (Echo 11) [µM]	EC50 (Polio 1) [µM]	EC50 (Polio 2) [µM]	EC50 (Polio 3) [µM]	EC50 (Rhino 2) [µM]	EC50 (Rhino 9) [µM]	EC50 (Rhino 15) [µM]	EC50 (Rhino 29) [µM]	EC50 (Rhino 39) [µM]	EC50 (Rhino 41) [µM]	EC50 (Rhino 45; HeLa) [µM]	EC50 (Rhino 63) [µM]	EC50 (Rhino 85) [µM]	EC50 (Rhino 89) [µM]	melting point [°C]	CC50 (in vitro) [mg/L]	CC50 (in vitro; Picorana CC50) [mg/L]	EC50 (Poliovirus 3; read-out: Poliovirus3 EC50) [mg/L]	also measured
CC(C)c1ccc2c(c1)OC1(O)c3ccccc3C(=O)C21O (centres unmarked) [Example 10, 4b,9b-Dihydroxy-7-isopropyl-4bH-benzo[d]indeno[1,2-b]furan-10(9bH)-one]	> 100	0.012 ± 0.002	0.021	0.75 ± 0.37	0.36 ± 0.15	1 ± 0.57	> 50	> 50	> 50	> 50	> 50	8.8 ± 0.12	3.4 ± 1.5	> 50	> 50	> 50	195 to 198	18.4 (≈ 62.2 µM)	14.2 (≈ 47.9 µM)		EC50 (Coxsackie A16): 0.09 ± 0.035 µM; EC50 (Coxsackie A21): 1.1 ± 0.58 µM; EC50 (Echo 9; MRC5, incubation at 37° C. in MRC-5 cells, read-out: Echo 9 EC50): 0.025 ± 0.0057 µM; EC50 (Rhino 42): > 50 µM; EC50 (Rhino 70; [3]): 2.4 ± 0.36 µM; EC50 (Rhino 72): 5.3 ± 1.2 µM; EC50 (Rhino 86): 8 ± 2.9 µM
CC(C)c1ccc2c(c1)O[C@@]1(O)c3cccc(N)c3C(=O)[C@@]21O [Example 46, 1-Amino-4b,9b-dihydroxy-7-isopropyl-4bH-benzo[d]indeno[1,2-b]furan-10(9bH)-one]	> 100	0.0031	0.0023 ± 0.00088	0.068	0.018 ± 0.0019	0.043 ± 0.017	> 10	3.5 ± 0.15	2.8 ± 0.26	4.6 ± 0.72	3 ± 0.17	0.47 ± 0.036	≤ 0.078	8.5 ± 0.13	6.2 ± 0.7	0.34 ± 0.86	180 to 182	18.3 (≈ 58.9 µM)	9.42 (≈ 30.3 µM)	< 0.01	EC50 (Coxsackie A9): 0.0017 µM; EC50 (Echo 9; MRC5, read-out: Echo 9 EC50): 0.0035 µM; EC50 (Rhino 45; listed as Ex. 46): < 0.078 µM; EC50 (Rhino 14): < 0.01 µM; EC50 (Rhino 70; HeLa, incubation at 37° C. in HeLa cells, read-out: Rhino 70 EC50): ≤ 0.078 µM; EC50 (Rhino 70; read-out: Rhino 70 EC50, incubation at 37° C. in HeLa cells, listed as Ex. 46): > 0.078 µM
CC(=O)O[C@@]12Oc3cc(C(C)C)ccc3[C@]1(OC(C)=O)C(=O)c1c(N)cccc12 [Example 47, 1-Amino-7-isopropyl-10-oxo-9b,10-dihydro-4bH-benzo[d]indeno[1,2-b]furane-4b,9b-diyl diacetate]																	220 to 223	15.4		< 0.1	EC50 (Coxsackie A24(DN)): 0.055 mg/L; EC50 (Coxsackie A24(HG)): < 0.01 mg/L; EC50 (Poliovirus 3; HeLa37, 48 h, read-out: Poliovirus 3 EC50): < 0.1 mg/L
CC(=O)NC12C(=O)c3ccccc3C1(O)Oc1cc(C(C)C)ccc12 (centres unmarked) [Example 66, N-(4b-Hydroxy-7-isopropyl-10-oxo-4b,10-dihydro-5-oxa-indeno[2,1-a]inden-9b-yl)-acetamide]	> 100	0.025 ± 0.00092	0.0072 ± 0.00018	0.69 ± 0.17	0.23 ± 0.02	0.58 ± 0.0069	5.9 ± 0.25	2.3 ± 0.7	4.6 ± 1.3	6.4 ± 0.83	1.8 ± 0.37	0.6 ± 0.026	1.7 ± 0.46	> 10	> 5.8	0.63 ± 0.023			44.7 (≈ 133 µM)		EC50 (Coxsackie A9): 0.0083 ± 0.00043 µM; EC50 (Rhino 59): > 10 µM; EC50 (Rhino 42): 0.15 ± 0.023 µM; EC50 (Rhino 70; [3]): 0.057 ± 0.017 µM; EC50 (Rhino 72): 0.13 ± 0.069 µM; EC50 (Rhino 86): 0.07 ± 0.0066 µM
CC(C)c1ccc2c(c1)OC1(O)c3cccc(N)c3C(=O)C21NC(=O)c1[nH]nc2ccccc12 (centres unmarked) [Example 288, N-(1-Amino-4b-hydroxy-7-isopropyl-10-oxo-9b,10-dihydro-4bH-benzo[d]indeno[1,2-b]furan-9b-yl)-2H-indazole-3-carboxamide]																				0.029 (≈ 0.0638 µM)	Picorana CC50 [2]: >10 mg/L
